Measured values: publication PMC8002391, “A High-Throughput Screening System Based on Fluorescence-Activated Cell Sorting for the Directed Evolution of Chitinase A” (International Journal of Molecular Sciences, 2021)

Target: T1, ChiA (chitinase A) (Bacillus licheniformis, UniProt B7UB89)
T1 construct: synthetic chiA gene in pET22b(+), in frame with pelB signal for periplasmic expression in E. coli BL21 (DE3); whole cells assayed
Test: fluorescence microtiter plate assay with whole E. coli cells expressing chiA (4MU release)
Assay type: cell-based
Settings: 0.1 M sodium acetate pH 6.0; 25 µL cells + 25 µL 0.5 mg/mL 4MUTC; empty-vector cells as control

T1 sequence (B7UB89 1-580): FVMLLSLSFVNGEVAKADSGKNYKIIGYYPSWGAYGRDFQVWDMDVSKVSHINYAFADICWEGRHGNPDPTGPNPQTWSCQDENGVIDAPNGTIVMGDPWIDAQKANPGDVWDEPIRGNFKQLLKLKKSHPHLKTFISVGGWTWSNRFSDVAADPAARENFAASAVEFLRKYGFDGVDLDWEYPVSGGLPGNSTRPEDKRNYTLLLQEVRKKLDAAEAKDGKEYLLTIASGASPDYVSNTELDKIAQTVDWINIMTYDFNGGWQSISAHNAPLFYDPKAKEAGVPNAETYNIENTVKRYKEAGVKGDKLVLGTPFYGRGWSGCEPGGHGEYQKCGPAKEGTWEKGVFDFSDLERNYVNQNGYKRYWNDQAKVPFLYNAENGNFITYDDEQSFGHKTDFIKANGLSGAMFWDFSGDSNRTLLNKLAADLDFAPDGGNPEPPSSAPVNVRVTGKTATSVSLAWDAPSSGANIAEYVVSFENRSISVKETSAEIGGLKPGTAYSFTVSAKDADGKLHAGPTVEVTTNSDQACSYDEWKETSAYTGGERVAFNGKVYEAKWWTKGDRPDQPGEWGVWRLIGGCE

## CC(=O)N[C@H]1[C@H](Oc2ccc3c(C)cc(=O)oc3c2)O[C@H](CO)[C@@H](O[C@@H]2O[C@H](CO)[C@@H](O[C@@H]3O[C@H](CO)[C@@H](O)[C@H](O)[C@H]3NC(C)=O)[C@H](O)[C@H]2NC(C)=O)[C@@H]1O [4-methylumbelliferyl β-D-N,N′,N″-triacetyl chitotrioside]
  fluorescence microtiter plate assay with whole E. coli cells expressing chiA (4M): comparing E. coli cells expressing chiA to those transformed with the empty vector
